Measurements: patent US10959432B2, “Microbiocidal oxadiazole derivatives” (Syngenta Participations AG, priority 2016, dated 2021)

Key:
[1] = system: Puccinia recondita f. sp. tritici; test: Fungicidal activity against Puccinia recondita f. sp. tritici / wheat / leaf disc curative (brown rust); assay type: in vivo; conditions: foliar, 200 ppm in the applied formulation, wheat leaf segments cv. Kanzler, curative (applied 1 day after inoculation), assessed 6 to 8 days after application, read-out: disease control compared to untreated control leaf disks
How it was run: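 Curative test: compound, diluted from DMSO stock into water, applied one day after spore inoculation of wheat (cv. Kanzler) leaf segments kept on agar in darkness at 19° C. and 75% RH. Climate-cabinet incubation (19° C., 75% RH, 12 h photoperiod); disease control relative to untreated read 6–8 days post-application.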

[2] = system: Glomerella laqenarium (Colletotrichum lagenarium); test: Fungicidal activity against Glomerella lagenarium (Colletotrichum lagenarium) liquid culture / cucumber / preventative (anthracnose); assay type: cell-based; conditions: Colletotrichum orbiculare; 20 ppm in the applied formulation; liquid culture in PDB, 24° C., 3 to 4 days after application; read-out: disease control compared to untreated control (inhibition of growth measured photometrically)
How it was run: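 Test compound, applied from DMSO solution, is combined with PDB containing conidia taken from cryogenic storage. After 3–4 days at 24 °C, growth is measured photometrically and antifungal activity expressed as percent relative to untreated control.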

[3] = system: Uromyces viciae-fabae; test: Fungicidal activity against Uromyces viciae-fabae / field bean / leaf disc preventative (faba-bean rust); assay type: in vivo; conditions: foliar, 288 h, 100 ppm in the applied formulation, field bean leaf discs, preventative (inoculated two hours after application), assessed 12 days after application, read-out: disease control compared to untreated control leaf discs
How it was run: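 Field bean leaf discs on water agar treated with 10 μl compound in acetone plus spreader, then spray-inoculated on the lower surface with Uromyces viciae-fabae spores 2 h later. Incubation at 22 °C, 18 h day, 70% RH; percent disease control versus untreated scored 12 days after application, compounds at 100 ppm.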

[4] = system: Puccinia recondita f. sp. tritici; test: Fungicidal activity against Puccinia recondita f. sp. tritici / wheat / leaf disc preventative (brown rust); assay type: in vivo; conditions: foliar, 200 ppm in the applied formulation, wheat leaf segments cv. Kanzler, preventative (inoculated 1 day after application), assessed 7 to 9 days after application, read-out: disease control compared to untreated control leaf disks
How it was run: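 Preventative leaf-segment test: compound sprayed at 200 ppm onto wheat (cv. Kanzler) segments, brown rust spores applied 1 day after. Kept at 19C and 75% rh under 12 h light/dark cycles; disease control versus untreated check read 7 to 9 days post-application.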

[5] = system: Phakopsora pachyrhizi; test: Fungicidal activity against Phakopsora pachyrhizi / soybean / leaf disc preventative (Asian soybean rust); assay type: in vivo; conditions: foliar, 200 ppm in the applied formulation, soybean leaf disks, preventative (inoculated one day after application), assessed 12 to 14 days after application, read-out: disease control compared to untreated control leaf disks
How it was run: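 Preventative test: compound applied to soybean leaf discs a day before spore inoculation of the lower surface. Discs kept at 20° C and 75% rh, first 24-36 h in darkness, then under 12 h light/day; disease control relative to untreated discs rated 12 to 14 days post-application.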

CCCN(C(=O)c1ccc(-c2noc(C(F)(F)F)n2)cc1)C1CCN(OC)CC1 [Compound 1a.5, N-(1-methoxy-4-piperidyl)-N-propyl-4-[5-(trifluoromethyl)-1,2,4-oxadiazol-3-yl]benzamide]
≥ 80%: pest or weed control at 200 ppm [1] | inhibition at 20 ppm [2] | pest or weed control at 100 ppm [3]

CN(C(=O)c1ccc(-c2noc(C(F)(F)F)n2)cc1)C1CCOC1 (stereo not shown) [Compound 1a.7, N-methyl-N-tetrahydrofuran-3-yl-4-[5-(trifluoromethyl)-1,2,4-oxadiazol-3-yl]benzamide]
≥ 80%: pest or weed control at 200 ppm [4] | pest or weed control at 200 ppm [1] | pest or weed control at 100 ppm [3]

COC(=O)C1(NC(=O)c2ccc(-c3noc(C(F)(F)F)n3)cc2)CCCN(OC)C1 (stereo not shown) [Compound 1a.8, methyl 1-methoxy-3-[[4-[5-(trifluoromethyl)-1,2,4-oxadiazol-3-yl]benzoyl]amino]piperidine-3-carboxylate]
≥ 80%: pest or weed control at 200 ppm [1] | pest or weed control at 100 ppm [3]

CN(C(=O)c1ccc(-c2noc(C(F)(F)F)n2)cc1)C1CCSC1 (stereo not shown) [Compound 1a.9, N-methyl-N-tetra-hydrothiophen-3-yl-4-[5-(trifluoromethyl)-1,2,4-oxadiazol-3-yl]benzamide]
≥ 80%: pest or weed control at 200 ppm [1] | pest or weed control at 100 ppm [3]

CN(CC1OCCO1)C(=O)c1ccc(-c2noc(C(F)(F)F)n2)cc1F [Compound 1b.2, N-(1,3-dioxolan-2-ylmethyl)-2-fluoro-N-methyl-4-[5-(trifluoromethyl)-1,2,4-oxadiazol-3-yl]benzamide]
≥ 80%: pest or weed control at 200 ppm [4] | pest or weed control at 200 ppm [1] | pest or weed control at 200 ppm [5] | pest or weed control at 100 ppm [3]

CC1(C)OCC(CNC(=O)c2ccc(-c3noc(C(F)(F)F)n3)cc2F)O1 (stereo not shown) [Compound 1b.6, N-[(2,2-dimethyl-1,3-dioxolan-4-yl)methyl]-2-fluoro-4-[5-(trifluoromethyl)-1,2,4-oxadiazol-3-yl]benzamide]
≥ 80%: pest or weed control at 200 ppm [4] | pest or weed control at 200 ppm [1] | pest or weed control at 200 ppm [5] | pest or weed control at 100 ppm [3]

CN(C(=O)c1ccc(-c2noc(C(F)(F)F)n2)cc1F)C1CCOC1 (stereo not shown) [Compound 1b.7, 2-fluoro-N-methyl-N-tetrahydrofuran-3-yl-4-[5-(trifluoromethyl)-1,2,4-oxadiazol-3-yl]benzamide]
≥ 80%: pest or weed control at 200 ppm [1] | pest or weed control at 100 ppm [3]

CN(CC1CCCCO1)C(=O)c1ccc(-c2noc(C(F)(F)F)n2)cc1F (stereo not shown) [Compound 1b.10, 2-fluoro-N-methyl-N-(tetrahydropyran-2-ylmethyl)-4-[5-(trifluoromethyl)-1,2,4-oxadiazol-3-yl]benzamide]
≥ 80%: pest or weed control at 200 ppm [1] | pest or weed control at 100 ppm [3]

CC(NC(=O)c1ccc(-c2noc(C(F)(F)F)n2)cc1F)C1(C)OCCO1 (stereo not shown) [Compound 1b.12, 2-fluoro-N-[1-(2-methyl-1,3-dioxolan-2-yl)ethyl]-4-[5-(trifluoromethyl)-1,2,4-oxadiazol-3-yl]benzamide]
≥ 80%: pest or weed control at 200 ppm [1] | pest or weed control at 100 ppm [3]

O=C(NCC1COCCO1)c1ccc(-c2noc(C(F)(F)F)n2)cc1Cl (stereo not shown) [Compound 1b.13, 2-chloro-N-(1,4-dioxan-2-ylmethyl)-4-[5-(trifluoromethyl)-1,2,4-oxadiazol-3-yl]benzamide]
≥ 80%: pest or weed control at 200 ppm [4] | pest or weed control at 200 ppm [1] | pest or weed control at 100 ppm [3]

O=C(NCC1CCOC1)c1ccc(-c2noc(C(F)(F)F)n2)cc1Cl (stereo not shown) [Compound 1b.14, 2-chloro-N-(tetrahydrofuran-3-ylmethyl)-4-[5-(trifluoromethyl)-1,2,4-oxadiazol-3-yl]benzamide]
≥ 80%: pest or weed control at 200 ppm [4] | pest or weed control at 200 ppm [5] | inhibition at 20 ppm [2] | pest or weed control at 100 ppm [3]

O=C(NCC1CCC1)c1ccc(-c2noc(C(F)(F)F)n2)cc1 [Compound 2a.3, N-(cyclobutylmethyl)-4-[5-(trifluoromethyl)-1,2,4-oxadiazol-3-yl]benzamide]
≥ 80%: pest or weed control at 200 ppm [4] | pest or weed control at 200 ppm [1] | pest or weed control at 200 ppm [5] | pest or weed control at 100 ppm [3]

CC1(NC(=O)c2ccc(-c3noc(C(F)(F)F)n3)cc2)CCC1 [Compound 2a.4, N-(1-methylcyclobutyl)-4-[5-(trifluoromethyl)-1,2,4-oxadiazol-3-yl]benzamide]
≥ 80%: pest or weed control at 200 ppm [4] | pest or weed control at 200 ppm [1] | pest or weed control at 200 ppm [5] | pest or weed control at 100 ppm [3]

O=C(NCC1CCC1)c1ccc(-c2noc(C(F)(F)F)n2)cc1F [Compound 2b.11, N-(cyclobutylmethyl)-2-fluoro-4-[5-(trifluoromethyl)-1,2,4-oxadiazol-3-yl]benzamide]
≥ 80%: pest or weed control at 200 ppm [4] | pest or weed control at 200 ppm [1] | pest or weed control at 200 ppm [5] | pest or weed control at 100 ppm [3]

CC1(NC(=O)c2ccc(-c3noc(C(F)(F)F)n3)cc2F)CCC1 [Compound 2b.12, 2-fluoro-N-(1-methylcyclobutyl)-4-[5-(trifluoromethyl)-1,2,4-oxadiazol-3-yl]benzamide]
≥ 80%: pest or weed control at 200 ppm [4] | pest or weed control at 200 ppm [1] | pest or weed control at 200 ppm [5] | pest or weed control at 100 ppm [3]

O=C(NC1CCCC1(F)F)c1ccc(-c2noc(C(F)(F)F)n2)cc1F (stereo not shown) [Compound 2b.17, N-(2,2-difluorocyclopentyl)-2-fluoro-4-[5-(trifluoromethyl)-1,2,4-oxadiazol-3-yl]benzamide]
≥ 80%: pest or weed control at 200 ppm [4] | pest or weed control at 200 ppm [1] | pest or weed control at 200 ppm [5] | pest or weed control at 100 ppm [3]

COC(=O)CNC(=O)c1ccc(-c2noc(C(F)(F)F)n2)cc1 [Compound 3a.4, methyl 2-[[4-[5-(trifluoromethyl)-1,2,4-oxadiazol-3-yl]benzoyl]amino]acetate]
≥ 80%: pest or weed control at 200 ppm [4] | pest or weed control at 200 ppm [5] | inhibition at 20 ppm [2] | pest or weed control at 100 ppm [3]

O=C(NCCc1cccs1)c1ccc(-c2noc(C(F)(F)F)n2)cc1 [Compound 5a.7, N-[2-(2-thienyl)ethyl]-4-[5-(trifluoromethyl)-1,2,4-oxadiazol-3-yl]benzamide]
≥ 80%: pest or weed control at 200 ppm [4] | pest or weed control at 200 ppm [5] | inhibition at 20 ppm [2] | pest or weed control at 100 ppm [3]

Cc1ccsc1CN(C)C(=O)c1ccc(-c2noc(C(F)(F)F)n2)cc1F [Compound 5b.3, 2-fluoro-N-methyl-N-[(3-methyl-2-thienyl)methyl]-4-[5-(trifluoromethyl)-1,2,4-oxadiazol-3-yl]benzamide]
≥ 80%: pest or weed control at 200 ppm [1] | pest or weed control at 200 ppm [5] | inhibition at 20 ppm [2] | pest or weed control at 100 ppm [3]

O=C(Nc1cn[nH]c1)c1ccc(-c2noc(C(F)(F)F)n2)cc1F [Compound 5b.7, 2-fluoro-N-(1H-pyrazol-4-yl)-4-[5-(trifluoromethyl)-1,2,4-oxadiazol-3-yl]benzamide]
≥ 80%: pest or weed control at 200 ppm [4] | pest or weed control at 200 ppm [5] | inhibition at 20 ppm [2] | pest or weed control at 100 ppm [3]

O=C(NCCc1cccs1)c1ccc(-c2noc(C(F)(F)F)n2)cc1Cl [Compound 5b.18, 2-chloro-N-[2-(2-thienyl)ethyl]-4-[5-(trifluoromethyl)-1,2,4-oxadiazol-3-yl]benzamide]
≥ 80%: pest or weed control at 200 ppm [4] | inhibition at 20 ppm [2] | pest or weed control at 100 ppm [3]
